Patent publication US20230414601A1, “INJECTABLE COMPOSITION CONTAINING CASPASE INHIBITOR, AND PREPARATION METHOD THEREFOR” (LG CHEM, LTD., priority 2020, published 2023)

Assay: Test for API loss according to continuous phase
Assay type: physicochemical
Method: A dispersed phase was prepared by dissolving a certain amount of the Test Compound (API) in an organic solvent (dichloromethane, DCM), and 1 mL of the prepared dispersed phase was added to each continuous phase and then stirred to measure the amount of the API extracted into the continuous phase.

Amount of API extracted into continuous phase (%) (continuous phase 0.01N HCl): 4.0%
Amount of API extracted into continuous phase (%) (continuous phase DW, dispersed phase API in DCM, 1 mL): 3.7%
Amount of API extracted into continuous phase (%) (continuous phase PVA 1 wt %): 24.9%
Amount of API extracted into continuous phase (%) (continuous phase PVA 1 wt % + 1N HCl): 13.1%
Amount of API extracted into continuous phase (%) (continuous phase PVA 5 wt %): 59.3%
SMILES: CC(C)[C@@]1(C(=O)N[C@H]2CC(=O)O[C@]2(O)CF)CC(c2nccc3ccccc23)=NO1 [Test Compound, (R)-N-((2S,3S)-2-(fluoromethyl)-2-hydroxy-5-oxotetrahydrofuran-3-yl)-5-isopropyl-3-(isoquinolin-1-yl)-4,5-dihydroisoxazole-5-carboxamide]
